Results as given in PMC3960879 (Biology, 2013).
Read-outs that look alike come from different tables or passages of the source.

Legend:
[1] = target: F17aG lectin domain (Escherichia coli, UniProt Q99003); settings: CFG glycan array version 2; F17G at 200 µg/mL; SEM in parentheses
Method: (§1) A microarray presenting 264 different glycans (mammalian printed array version 2) was used to evaluate if the F17G variant lectin domains differ in the range of glycan receptors that they recognize, thereby establishing tropism. The microarray was set up within the Consortium for Functional Glycomics (CFG) ([20], and supplemental data). Binding of F17G (200 µg/mL) was detected using anti-F17G polyclonal rabbit IgG (10 µg/mL), followed by fluorescently labelled goat anti-rabbit polyclonal antibodies (IgG-488, 5 µg/mL).
(§2) A microarray presenting 264 different glycans (mammalian printed array version 2 from the CFG, experiment 400) was used to evaluate whether the F17G variant lectin domains differ in the range of glycan receptors that they can recognize, thereby establishing strain-dependent tropism. […] The glycan array screening has been repeated for F17aG only on printed array version 4.1 (experiment 2053) (Figure 1).
(§3) Printed array version 2 at the Consortium for Functional Glycomics was used for glycan array screening of the variant F17G receptor binding domains. Slides were printed, with six replicates for each glycan, using glycan spotting concentrations of 100 μM, at the Consortium Carbohydrate Synthesis/Protein Expression Core D located at the Scripps Research Institute onto Schott Nexterion H slides (Schott Cat. No. 1070936B). Slide conditioning: preprinted slides were soaked in deionized water for 5 minutes at room temperature and dried under a stream of nitrogen. TSM buffer (20 mM Tris-HCl, pH 7.4, or MOPS 20 mM; 150 mM NaCl; 2 mM CaCl2, 2 mM MgCl2) was used as wash buffer (TSM buffer + 0.05% Tween 20) or binding buffer (TSM buffer + 0.05% Tween 20 + 1% BSA). (1) F17G was diluted to 200 μg/mL (Figure 1) in TSM binding buffer. (2) 50 μL of F17G was applied to the printed surface and coverslipped. (3) The slide was incubated, protected from light, in a humidified chamber for 1 hour at RT. (4) The slide was washed once in TSM wash buffer. 50 μL of the anti-F17G (10 μg/mL) polyclonal rabbit IgG were applied, coverslipped and incubated for 1 h at RT. (5) The slide was washed once in TSM wash buffer. Fifty μL of fluorescently labelled secondary goat anti-rabbit polyclonal antibodies (IgG-488, 5 µg/mL) were applied, coverslipped and incubated for 1 h at RT. (6) Slide was removed, followed by the coverslip, and washed for 10 s each in TSM wash buffer, TSM wash buffer lacking Tween 20, and deionized water. The slide was dried under a stream of nitrogen. (7) The binding image was read in a Perkin Elmer Microscanarray XL4000 scanner and tiff file of image stored. (8) Image analysis was performed using Imagene (V.6) image analysis software. (9) Raw data results files were generated in Excel format and uploaded to the Consortium database as .dat files. (10) Imagene data was uploaded to the database as .txt files.

[2] = target: F17bG lectin domain (Escherichia coli, UniProt Q47200); settings: CFG glycan array version 2; F17G at 200 µg/mL; SEM in parentheses
Method: as §1, §2, §3

[3] = target: F17dG lectin domain (Escherichia coli, UniProt Q47199); settings: CFG glycan array version 2; F17G at 200 µg/mL; SEM in parentheses
Method: as §1, §2, §3

[4] = tested on: F17eG lectin domain; test: CFG mammalian printed glycan array version 2 (experiment 400), F17eG; format: binding, Escherichia coli; settings: CFG glycan array version 2; F17G at 200 µg/mL; SEM in parentheses
From the text: (§4) The slide was dried under a stream of nitrogen.

[5] = tested on: F17fG lectin domain; test: CFG mammalian printed glycan array version 2 (experiment 400), F17fG; format: binding, Escherichia coli; settings: CFG glycan array version 2; F17G at 200 µg/mL; SEM in parentheses
From the text: as §4

[6] = target: T1, F17aG receptor-binding domain (Escherichia coli, UniProt Q99003); test: biochemical; settings: SPR steady state, 25 °C, pH 7.4
T1 construct: variants of the lectin domains with oligolysine (4Lys) tails have been constructed; made in house; host or cells: E. coli (periplasm)
Method: The affinity profiles were determined by surface plasmon resonance (SPR) measurements using a BiaCore 3000 instrument (GE Healthcare). […] The proteins were covalently immobilized on CM5 sensor chips (Biacore AB) to an average density of 2000 RU (resonance units in pg/mm^2). On each chip, one flow cell was coated with a camel single domain antibody for use as a reference cell. The other three flow cells (Fc2, Fc3 and Fc4) were coated with three different F17G variants. Carbohydrate concentrations ranging from 10 µM to 10 mM in running buffer (20 mM Hepes, pH 7.4; 150 mM NaCl; 3 mM EDTA and 0.005% surfactant Tween 20) were incubated for one minute on all flow cells simultaneously, at 25 °C and at a flow rate of 30 µL/min. Complete dissociation of the carbohydrates in running buffer was verified before starting a new binding cycle. All binding cycles were performed in duplicate, including a zero concentration cycle (injection of pure running buffer). All analysis was done using the BIAeval software. In each case the equilibrium resonance signal from the reference cell was subtracted from that of the various F17G flow cells (2-1, 3-1, 4-1). A Langmuir binding isotherm with a 1:1 stoichiometry was fitted to the data, from which the equilibrium dissociation constants, Kd, were obtained.

[7] = good fit for at least three related experiments, read-out: dissociation constant Kd, F17aG
[8] = read-out: Affinity range (Kd class), F17aG

Sequence of F17dG lectin domain (Q47199 23-199): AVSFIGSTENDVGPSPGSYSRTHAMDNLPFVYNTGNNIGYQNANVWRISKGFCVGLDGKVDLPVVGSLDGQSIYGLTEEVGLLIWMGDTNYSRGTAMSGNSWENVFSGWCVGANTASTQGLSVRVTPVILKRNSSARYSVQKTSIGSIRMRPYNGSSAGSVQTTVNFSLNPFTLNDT
Sequence of F17bG lectin domain (Q47200 23-199): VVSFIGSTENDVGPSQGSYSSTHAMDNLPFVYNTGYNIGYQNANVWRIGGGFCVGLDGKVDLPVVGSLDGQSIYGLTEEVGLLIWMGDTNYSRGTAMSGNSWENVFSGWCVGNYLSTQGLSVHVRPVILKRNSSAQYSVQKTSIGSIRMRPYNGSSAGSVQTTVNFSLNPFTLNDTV
Sequence of F17aG lectin domain (Q99003 23-199): as the sequence (Q47199 23-199) above, with P16L, N33D, G35R, N37K, R47H, N90K counted along it
T1 sequence (Q99003 23-199): as the sequence (Q47199 23-199) above, with P16L, N33D, G35R, N37K, R47H, N90K counted along it

Compound | Relative Fluorescence Units (RFU), averaged over six replicates, F17aG [1] | Relative Fluorescence Units (RFU), averaged over six replicates, F17bG [2] | Relative Fluorescence Units (RFU), averaged over six replicates, F17dG [3] | Relative Fluorescence Units (RFU), averaged over six replicates, F17eG [4] | Relative Fluorescence Units (RFU), averaged over six replicates, F17fG [5] | Kd [6, 7] | Kd [6, 8]
CC(=O)N[C@H]1[C@H](OCCN)O[C@H](CO)[C@@H](O)[C@@H]1O [GlcNAcβ-Sp0] | 15,621 (2,697) RFU | 14,972 (2,705) RFU | 3,377 (643) RFU | 34,825 (6,475) RFU | 5,354 (1,572) RFU | – | –
CC(=O)N[C@H]1[C@H](OCCCN)O[C@H](CO)[C@@H](O)[C@@H]1O [GlcNAcβ-Sp8] | 22,909 (3,087) RFU | 12,289 (1,168) RFU | 2,514 (365) RFU | 31,863 (4,615) RFU | 10,738 (2,670) RFU | – | –
NCCCO[C@@H]1O[C@H](CO)[C@@H](O)[C@H](O)[C@H]1N [GlcNH2β-Sp8] | 554 (117) RFU | 7,281 (1,506) RFU | 1,950 (1,358) RFU | 548 (256) RFU | 1,385 (464) RFU | – | –
CO[C@H]1O[C@H](CO)[C@@H](O)[C@H](O)[C@H]1NC(C)=O [Me α N-acetylglucosamine] | – | – | – | – | – | 9.8 mM | –
CO[C@@H]1O[C@H](CO)[C@@H](O)[C@H](O)[C@H]1NC(C)=O [Me β N-acetylglucosamine] | – | – | – | – | – | 1.2 mM | 1 to 10 mM
Gal β1,4 GlcNAc | – | – | – | – | – | – | 1 to 10 mM
GalNAcβ1,3GalNAcα-Sp8 | – | 17,169 (4,228) RFU | 11,034 (1204) RFU | 50,791 (5,749) RFU | 10,691 (3,009) RFU | – | –
GlcNAcβ1,3(GlcNAcβ1,6)GalNAcα-Sp8 | 35,858 (4,079) RFU | 12,183 (1,524) RFU | 23,756 (2,105) RFU | 46,840 (6,520) RFU | – | – | –
GlcNAcβ1,6(Galβ1,3)GalNAcα-Sp8 | 12,541 (1,115) RFU | 6,017 (587) RFU | 3,492 (658) RFU | – | 3,206(997) RFU | – | –
